Laboratory results: patent US20250051363A1, “Substituted Pyrazolopyridines” (Neuro3 Therapeutics, Inc., priority 2023, published 2025)

Target: LRRK2 wild-type (Homo sapiens (Human), UniProt Q5S007)
Experiment: LanthaScreen LRRK2 Biochemical Activity Assay
Details: human recombinant LRRK2 (amino acids 970-2527) wild-type, ATP 57 μM, TR-FRET; read-out: IC50 (nM), inhibition of LRRK2 wild-type kinase activity
Method: The ability of a compound of Formula (I) to inhibit LRRK2 kinase activity is measured using a LanthaScreen™ kinase activity assay. In general, in a LanthaScreen™ kinase activity assay, kinase, fluorescein-labeled substrate, and ATP are allowed to react. Then EDTA (to stop the reaction) and terbium-labeled antibody (to detect phosphorylated product) are added. In a LanthaScreen™ kinase reaction, the antibody associates with the phosphorylated fluorescein labeled substrate resulting in an increased TR-FRET value. The TR-FRET value is a dimensionless number that is calculated as the ratio of the acceptor (fluorescein) signal to the donor (terbium) signal. The amount of antibody that is bound to the tracer is directly proportional to the amount of phosphorylated substrate present, and in this manner, kinase activity can be detected and measured by an increase in the TR-FRET value. Accordingly, in this Example, enzyme reactions are carried out in a kinase reaction buffer in the presence or absence of representative compounds of Formula (I) at various concentrations in 384-well plate at room temperature for 60 minutes. The kinase reaction buffer contains human recombinant LRRK2 protein (amino acids 970-2527, 5 nM), ATP (57 μM for LRRK2 wild-type, 134 μM for G2019S mutant protein), Fluorescein-LRRKtide substrate (0.4 mM), 50 mM Tris pH 7.5, 10 mM MgCl2, 1 mM EGTA, 0.01% Brij™-35, and 2 mM DTT. The final reaction volume for each reaction is 10 μL. The reactions are initated by adding the substrate and stopped by the addition of 10 μL of a TR-FRET dilution buffer supplemented with a kinase quench buffer (10 mM EDTA final) and Tb-anti-pLRRKtide (2 nM final). The plate is further incubated at room temperature for another 60 minutes, and the fluorescent signals are read on an EnVision® multilabel plate reader (PerkinElmer, Waltham, MA) with excitation at 340 nm and emission at 495 and 520 nm. The assay signal is determined as a ratio of FRET-specific signal measured with emission filter at 520 nm to that of the signal measured with Tb-specific emission filter at 495 nm. IC50 values for compound-mediated enzyme inhibition are calculated using appropriate programs in GraphPad Prism software by plotting the logarithm of the compound concentrations versus percent inhibition. All reagents are purchased from Thermo Fisher Scientific.

LRRK2 wild-type, sequence (Q5S007 970-2527): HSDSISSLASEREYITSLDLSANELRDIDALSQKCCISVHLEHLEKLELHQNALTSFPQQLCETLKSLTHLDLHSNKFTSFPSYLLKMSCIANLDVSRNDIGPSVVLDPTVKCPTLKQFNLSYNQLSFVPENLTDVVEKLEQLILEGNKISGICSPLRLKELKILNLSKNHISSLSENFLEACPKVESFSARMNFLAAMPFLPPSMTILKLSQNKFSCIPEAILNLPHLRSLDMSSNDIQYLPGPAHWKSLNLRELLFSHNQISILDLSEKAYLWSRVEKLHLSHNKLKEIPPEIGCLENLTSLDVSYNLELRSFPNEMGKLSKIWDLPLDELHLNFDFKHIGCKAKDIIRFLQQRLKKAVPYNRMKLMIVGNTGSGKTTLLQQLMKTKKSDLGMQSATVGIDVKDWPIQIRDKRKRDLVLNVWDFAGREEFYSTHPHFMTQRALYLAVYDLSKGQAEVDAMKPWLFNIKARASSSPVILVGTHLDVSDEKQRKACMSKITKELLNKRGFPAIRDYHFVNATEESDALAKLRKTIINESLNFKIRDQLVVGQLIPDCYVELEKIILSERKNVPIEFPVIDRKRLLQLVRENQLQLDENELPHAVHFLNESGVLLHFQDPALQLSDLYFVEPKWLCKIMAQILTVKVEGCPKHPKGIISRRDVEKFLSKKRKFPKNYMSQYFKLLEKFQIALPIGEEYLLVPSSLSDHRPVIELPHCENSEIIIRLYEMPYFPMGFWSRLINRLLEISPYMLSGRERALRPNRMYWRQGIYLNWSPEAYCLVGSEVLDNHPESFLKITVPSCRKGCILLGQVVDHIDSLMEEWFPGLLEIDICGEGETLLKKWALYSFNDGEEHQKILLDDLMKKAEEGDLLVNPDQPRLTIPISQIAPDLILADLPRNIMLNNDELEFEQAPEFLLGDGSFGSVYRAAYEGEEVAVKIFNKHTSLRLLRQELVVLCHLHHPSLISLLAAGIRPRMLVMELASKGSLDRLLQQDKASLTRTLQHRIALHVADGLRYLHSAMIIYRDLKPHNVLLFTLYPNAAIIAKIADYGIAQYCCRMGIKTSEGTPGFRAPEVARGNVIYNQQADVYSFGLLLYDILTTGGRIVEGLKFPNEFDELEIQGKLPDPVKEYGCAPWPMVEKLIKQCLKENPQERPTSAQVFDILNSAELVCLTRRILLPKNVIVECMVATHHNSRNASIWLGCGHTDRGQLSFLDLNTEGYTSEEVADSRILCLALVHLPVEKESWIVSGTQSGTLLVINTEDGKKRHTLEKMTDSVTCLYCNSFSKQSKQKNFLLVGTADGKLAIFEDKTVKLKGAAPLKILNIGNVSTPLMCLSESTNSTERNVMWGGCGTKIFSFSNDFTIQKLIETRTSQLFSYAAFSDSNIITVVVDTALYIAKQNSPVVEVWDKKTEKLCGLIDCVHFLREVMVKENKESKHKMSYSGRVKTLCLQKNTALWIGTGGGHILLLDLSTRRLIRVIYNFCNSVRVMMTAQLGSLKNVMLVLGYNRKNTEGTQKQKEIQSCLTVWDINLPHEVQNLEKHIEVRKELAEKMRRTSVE

IC50, 11 to 100 nM:
O=C(COc1ccncc1)Nc1ccn2ncc(-c3cccc(C4CCCNC4)n3)c2c1 (stereo not drawn) [Example 76, N-(3-(6-(piperidin-3-yl)pyridin-2-yl)pyrazolo[1,5-a]pyridin-5-yl)-2-(pyridin-4-yloxy)acetamide]
N#CCC(=O)Nc1ccn2ncc(-c3cccc(C4CCCNC4)n3)c2c1 (stereo not drawn) [Example 77, 2-cyano-N-(3-(6-(piperidin-3-yl)pyridin-2-yl)pyrazolo[1,5-a]pyridin-5-yl)acetamide]
O=C(Cc1cccnc1)Nc1ccn2ncc(-c3cccc(C4CCCNC4)n3)c2c1 (stereo not drawn) [Example 78, N-(3-(6-(piperidin-3-yl)pyridin-2-yl)pyrazolo[1,5-a]pyridin-5-yl)-2-(pyridin-3-yl)acetamide]
O=C(CNc1ccncc1)Nc1ccn2ncc(-c3cccc(C4CCCNC4)n3)c2c1 (stereo not drawn) [Example 79, N-(3-(6-(piperidin-3-yl)pyridin-2-yl)pyrazolo[1,5-a]pyridin-5-yl)-2-(pyridin-4-ylamino)acetamide]
O=C(CNc1cccnc1)Nc1ccn2ncc(-c3cccc(C4CCCNC4)n3)c2c1 (stereo not drawn) [Example 80, N-(3-(6-(piperidin-3-yl)pyridin-2-yl)pyrazolo[1,5-a]pyridin-5-yl)-2-(pyridin-3-ylamino)acetamide]
O=C(Cc1ccccn1)Nc1ccn2ncc(-c3cccc(C4CCCNC4)n3)c2c1 (stereo not drawn) [Example 81, N-(3-(6-(piperidin-3-yl)pyridin-2-yl)pyrazolo[1,5-a]pyridin-5-yl)-2-(pyridin-2-yl)acetamide]
